Measured values as given in patent US20230310428A1, “EGFR INHIBITOR AND PREPARATION METHOD AND USE THEREOF” (HONGYUN BIOTECH CO., LTD., priority 2020, published 2023).

Assays:
Experiment in all cases: Growth inhibitory activity of compounds on BaF3 cell lines stably transfected with kinase (MTS, 48 h)
Type in all cases: cell-based
[1] = biological target: T1, various mutants of kinase EGFR (BaF3 cell lines stably transfected with kinase) (Homo sapiens, UniProt P00533, L858R); details: BaF3 cell line stably transfected with EGFR L858R, read-out: L858R growth inhibitory activity IC50
T1 construct: expressed in transfected cells; host or cells: BaF3
T1 sequence (P00533 25-1210 L858R): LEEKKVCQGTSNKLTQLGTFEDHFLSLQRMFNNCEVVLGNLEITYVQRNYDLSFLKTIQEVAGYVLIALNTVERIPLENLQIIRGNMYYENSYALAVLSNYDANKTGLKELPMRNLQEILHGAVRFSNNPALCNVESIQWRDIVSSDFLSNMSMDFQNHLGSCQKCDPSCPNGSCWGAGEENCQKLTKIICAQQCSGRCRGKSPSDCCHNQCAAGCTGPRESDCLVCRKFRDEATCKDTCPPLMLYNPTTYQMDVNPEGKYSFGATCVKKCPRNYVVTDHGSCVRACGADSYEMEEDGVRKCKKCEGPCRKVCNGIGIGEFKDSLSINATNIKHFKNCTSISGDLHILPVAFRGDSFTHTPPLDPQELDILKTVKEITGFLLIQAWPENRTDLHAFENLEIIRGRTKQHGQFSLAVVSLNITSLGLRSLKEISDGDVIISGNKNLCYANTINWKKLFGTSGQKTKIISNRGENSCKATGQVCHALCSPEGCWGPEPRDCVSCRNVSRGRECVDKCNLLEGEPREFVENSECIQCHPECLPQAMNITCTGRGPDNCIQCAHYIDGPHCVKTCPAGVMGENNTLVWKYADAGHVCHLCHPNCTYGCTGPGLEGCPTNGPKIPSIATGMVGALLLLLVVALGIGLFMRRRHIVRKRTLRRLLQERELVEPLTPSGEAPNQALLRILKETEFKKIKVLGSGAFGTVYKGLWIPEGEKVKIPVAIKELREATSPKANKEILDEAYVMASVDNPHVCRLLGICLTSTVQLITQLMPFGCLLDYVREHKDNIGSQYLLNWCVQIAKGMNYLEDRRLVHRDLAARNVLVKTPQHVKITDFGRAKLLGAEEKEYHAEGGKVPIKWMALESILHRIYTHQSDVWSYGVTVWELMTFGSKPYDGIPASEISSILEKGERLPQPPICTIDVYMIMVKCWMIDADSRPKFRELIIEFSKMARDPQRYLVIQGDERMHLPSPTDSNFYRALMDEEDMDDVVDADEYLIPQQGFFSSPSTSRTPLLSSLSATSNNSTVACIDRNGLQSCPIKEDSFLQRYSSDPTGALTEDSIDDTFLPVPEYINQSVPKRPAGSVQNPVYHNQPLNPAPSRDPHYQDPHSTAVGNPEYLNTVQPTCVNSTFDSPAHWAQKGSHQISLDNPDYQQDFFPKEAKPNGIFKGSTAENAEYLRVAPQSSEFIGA
Summary of the method: (§1)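 BaF3 cells stably transfected with EGFR mutants were exposed for 48 h at 37°C to 8 compound concentrations (top 10 µM, 1/3 dilutions, 0.1% DMSO). Growth was read by MTS at 490 nm after 1-4 h, in duplicate; IC50 was derived from inhibition rates versus DMSO control.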

[2] = biological target: T2, various mutants of kinase EGFR (BaF3 cell lines stably transfected with kinase) (Homo sapiens, UniProt P00533, T790M/C797S, form not given); details: BaF3 cell line stably transfected with EGFR Δ19Del/T790M/C797S, read-out: Δ19Del/T790M/ C797S growth inhibitory activity IC50
T2 construct: other: BaF3 cells stably transfected with EGFR Δ19Del/T790M/C797S; MTS, 48; other: BaF3 cell line stably transfected with EGFR Δ19Del/T790M/C7
T2 sequence (P00533 with tags, fused parts or gaps DEL746-750/T790M/C797S, form open): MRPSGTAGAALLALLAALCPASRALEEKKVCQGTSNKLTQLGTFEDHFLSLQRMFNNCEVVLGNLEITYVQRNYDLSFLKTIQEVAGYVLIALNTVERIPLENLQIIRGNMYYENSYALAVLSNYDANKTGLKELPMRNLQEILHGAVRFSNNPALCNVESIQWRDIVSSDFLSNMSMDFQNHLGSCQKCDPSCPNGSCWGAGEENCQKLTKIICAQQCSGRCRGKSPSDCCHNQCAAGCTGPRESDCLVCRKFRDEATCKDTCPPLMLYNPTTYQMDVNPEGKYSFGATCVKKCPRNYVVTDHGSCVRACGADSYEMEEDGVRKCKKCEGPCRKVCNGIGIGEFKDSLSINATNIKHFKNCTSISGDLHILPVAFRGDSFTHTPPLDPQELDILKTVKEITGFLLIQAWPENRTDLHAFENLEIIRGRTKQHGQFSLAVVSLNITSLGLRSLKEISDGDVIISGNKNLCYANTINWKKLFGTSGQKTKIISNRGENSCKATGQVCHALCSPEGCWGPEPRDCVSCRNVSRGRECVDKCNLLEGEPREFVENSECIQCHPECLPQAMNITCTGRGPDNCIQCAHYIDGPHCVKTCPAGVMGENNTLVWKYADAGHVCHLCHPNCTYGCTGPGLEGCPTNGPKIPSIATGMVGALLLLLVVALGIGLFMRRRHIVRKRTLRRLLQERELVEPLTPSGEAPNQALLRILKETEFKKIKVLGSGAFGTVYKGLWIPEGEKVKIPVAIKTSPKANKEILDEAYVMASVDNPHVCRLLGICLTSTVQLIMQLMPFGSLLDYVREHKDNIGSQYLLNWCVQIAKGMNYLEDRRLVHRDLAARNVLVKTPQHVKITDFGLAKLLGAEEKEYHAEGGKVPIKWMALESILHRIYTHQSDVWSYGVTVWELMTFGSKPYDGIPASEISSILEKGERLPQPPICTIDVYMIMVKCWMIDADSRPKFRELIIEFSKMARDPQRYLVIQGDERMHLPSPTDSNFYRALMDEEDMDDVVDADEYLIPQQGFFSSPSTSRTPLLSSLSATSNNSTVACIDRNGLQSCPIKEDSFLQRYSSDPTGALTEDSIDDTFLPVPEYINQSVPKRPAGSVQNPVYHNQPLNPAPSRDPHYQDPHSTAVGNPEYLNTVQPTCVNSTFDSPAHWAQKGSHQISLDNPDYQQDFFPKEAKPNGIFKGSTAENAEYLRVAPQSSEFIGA
Summary of the method: as §1

[3] = biological target: T3, various mutants of kinase EGFR (BaF3 cell lines stably transfected with kinase) (Homo sapiens, UniProt P00533, T790M, form not given); details: BaF3 cell line stably transfected with EGFR Δ19Del/T790M, read-out: Δ19Del/ T790M growth inhibitory activity IC50
T3 construct: other: BaF3 cells stably transfected with EGFR Δ19Del/T790M; MTS, 48 h; other: BaF3 cell line stably transfected with EGFR Δ19Del/T790M; MTS, 48
T3 sequence (P00533 with tags, fused parts or gaps DEL746-750/T790M, form open): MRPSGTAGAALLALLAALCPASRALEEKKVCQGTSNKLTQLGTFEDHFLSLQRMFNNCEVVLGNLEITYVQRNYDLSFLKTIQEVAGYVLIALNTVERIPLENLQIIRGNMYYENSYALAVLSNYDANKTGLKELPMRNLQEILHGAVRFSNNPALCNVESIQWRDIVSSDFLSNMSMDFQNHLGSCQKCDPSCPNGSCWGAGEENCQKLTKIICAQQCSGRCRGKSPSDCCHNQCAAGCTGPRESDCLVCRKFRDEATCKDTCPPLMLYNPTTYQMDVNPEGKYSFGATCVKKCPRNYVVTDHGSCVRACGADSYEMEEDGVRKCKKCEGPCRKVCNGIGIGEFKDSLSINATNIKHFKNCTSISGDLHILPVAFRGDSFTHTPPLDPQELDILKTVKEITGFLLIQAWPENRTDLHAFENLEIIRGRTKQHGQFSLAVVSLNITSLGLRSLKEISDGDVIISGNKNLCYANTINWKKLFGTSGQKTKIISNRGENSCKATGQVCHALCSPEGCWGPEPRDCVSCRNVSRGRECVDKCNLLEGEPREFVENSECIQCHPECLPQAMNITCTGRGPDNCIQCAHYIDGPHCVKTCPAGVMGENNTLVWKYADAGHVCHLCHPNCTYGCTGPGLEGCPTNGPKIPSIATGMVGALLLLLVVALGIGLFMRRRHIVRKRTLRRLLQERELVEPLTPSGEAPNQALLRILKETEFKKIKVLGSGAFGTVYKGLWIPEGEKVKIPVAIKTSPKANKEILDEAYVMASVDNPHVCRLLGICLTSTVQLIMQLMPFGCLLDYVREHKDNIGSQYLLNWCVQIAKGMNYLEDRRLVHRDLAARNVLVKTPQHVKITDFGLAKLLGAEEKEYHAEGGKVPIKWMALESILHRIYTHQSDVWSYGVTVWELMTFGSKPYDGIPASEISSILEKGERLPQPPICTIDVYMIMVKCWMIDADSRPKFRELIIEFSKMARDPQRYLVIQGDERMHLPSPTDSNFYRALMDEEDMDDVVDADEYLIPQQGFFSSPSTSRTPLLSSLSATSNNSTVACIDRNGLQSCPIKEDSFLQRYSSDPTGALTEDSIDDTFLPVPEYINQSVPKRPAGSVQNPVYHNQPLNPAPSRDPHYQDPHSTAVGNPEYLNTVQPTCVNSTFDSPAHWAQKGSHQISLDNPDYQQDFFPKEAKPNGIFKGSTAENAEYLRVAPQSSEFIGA
Summary of the method: as §1

[4] = biological target: T4, various mutants of kinase EGFR (BaF3 cell lines stably transfected with kinase) (Homo sapiens, UniProt P00533, L858R/T790M); details: BaF3 cell line stably transfected with EGFR L858R/T790M, read-out: L858R/ T790M growth inhibitory activity IC50
T4 construct: expressed in transfected cells; host or cells: BaF3
Summary of the method: as §1

[5] = biological target: T5, various mutants of kinase EGFR (BaF3 cell lines stably transfected with kinase) (Homo sapiens, UniProt P00533); details: BaF3 cell line stably transfected with EGFR Δ19Del, read-out: Δ19Del growth inhibitory activity IC50
T5 construct: other: BaF3 cells stably transfected with EGFR Δ19Del; MTS, 48 h; other: BaF3 cell line stably transfected with EGFR Δ19Del
T5 sequence (P00533 with tags, fused parts or gaps DEL746-750): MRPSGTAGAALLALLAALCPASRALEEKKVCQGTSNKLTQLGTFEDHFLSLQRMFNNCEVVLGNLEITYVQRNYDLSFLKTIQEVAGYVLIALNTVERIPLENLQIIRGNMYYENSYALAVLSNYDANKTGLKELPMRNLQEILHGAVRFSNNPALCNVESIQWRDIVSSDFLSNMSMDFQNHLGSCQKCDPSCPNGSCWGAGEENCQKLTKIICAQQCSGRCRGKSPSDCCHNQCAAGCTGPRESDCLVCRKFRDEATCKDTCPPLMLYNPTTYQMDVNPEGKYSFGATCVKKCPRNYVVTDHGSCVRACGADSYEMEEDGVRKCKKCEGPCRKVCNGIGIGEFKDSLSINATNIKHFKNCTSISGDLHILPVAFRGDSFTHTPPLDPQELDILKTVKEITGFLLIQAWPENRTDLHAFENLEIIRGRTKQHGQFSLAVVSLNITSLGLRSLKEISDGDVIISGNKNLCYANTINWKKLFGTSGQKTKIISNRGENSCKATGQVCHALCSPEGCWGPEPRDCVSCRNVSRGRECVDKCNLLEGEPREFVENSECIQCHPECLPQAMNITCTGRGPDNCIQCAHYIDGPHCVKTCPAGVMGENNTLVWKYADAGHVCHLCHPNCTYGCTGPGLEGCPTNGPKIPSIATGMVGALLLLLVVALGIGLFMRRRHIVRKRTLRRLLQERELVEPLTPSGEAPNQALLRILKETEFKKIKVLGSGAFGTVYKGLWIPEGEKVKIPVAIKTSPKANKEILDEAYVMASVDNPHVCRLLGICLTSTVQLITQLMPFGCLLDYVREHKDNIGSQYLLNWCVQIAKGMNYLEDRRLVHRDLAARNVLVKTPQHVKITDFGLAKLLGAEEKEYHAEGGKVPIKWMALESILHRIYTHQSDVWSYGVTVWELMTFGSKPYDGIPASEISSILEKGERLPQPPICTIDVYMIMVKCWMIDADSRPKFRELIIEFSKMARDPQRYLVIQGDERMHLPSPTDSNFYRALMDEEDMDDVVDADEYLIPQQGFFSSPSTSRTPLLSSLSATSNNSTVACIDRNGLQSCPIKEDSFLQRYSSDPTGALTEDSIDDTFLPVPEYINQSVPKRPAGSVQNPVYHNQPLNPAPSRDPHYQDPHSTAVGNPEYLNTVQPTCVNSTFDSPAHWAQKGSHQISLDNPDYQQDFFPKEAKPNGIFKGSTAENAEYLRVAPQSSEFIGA
Summary of the method: as §1

[6] = biological target: T6, various mutants of kinase EGFR (BaF3 cell lines stably transfected with kinase) (Homo sapiens, UniProt P00533, C797S/L858R/T790M); details: BaF3 cell line stably transfected with EGFR L858R/T790M/C797S, read-out: L858R/T790M/ C797S growth inhibitory activity IC50
T6 construct: expressed in transfected cells; host or cells: BaF3
Summary of the method: as §1

Row | Structure (SMILES) | IC50 [1] | IC50 [2] | IC50 [3] | IC50 [4] | IC50 [5] | IC50 [6]
1 | CCc1cc(Nc2ncc(Br)c(Nc3ccc4nccnc4c3NS(C)(=O)=O)n2)c(OC)cc1N1CCC(N(C)C)CC1 [Compound I-410] | ≤ 50 nM | ≤ 50 nM | ≤ 50 nM | ≤ 50 nM | ≤ 50 nM | ≤ 50 nM
2 | CCc1cc(Nc2ncc(Br)c(Nc3ccc4nccnc4c3NS(C)(=O)=O)n2)c(OC)cc1N1CCN(C)CC1 [Compound I-411] | ≤ 50 nM | ≤ 50 nM | ≤ 50 nM | ≤ 50 nM | ≤ 50 nM | ≤ 50 nM
3 | CCc1cc(Nc2ncc(Br)c(Nc3ccc4nccnc4c3NS(C)(=O)=O)n2)c(OC)cc1N1CCC(N(C)C)C1 (stereo not drawn) [Compound I-412] | ≤ 50 nM | ≤ 50 nM | ≤ 50 nM | ≤ 50 nM | ≤ 50 nM | ≤ 50 nM
4 | COc1cc(N2CCC(N3CCN(C)CC3)CC2)ccc1Nc1ncc(Br)c(Nc2ccc3nccnc3c2NS(=O)(=O)C(C)C)n1 [Compound I-413] | 50 to 500 nM | 50 to 500 nM | 50 to 500 nM | 50 to 500 nM | 50 to 500 nM | 50 to 500 nM
5 | COc1cc(N2CCC(N3CCN(C)CC3)CC2)c(C)cc1Nc1ncc(Br)c(Nc2ccc3nccnc3c2NS(=O)(=O)C(C)C)n1 [Compound I-414] | 50 to 500 nM | ≤ 50 nM | ≤ 50 nM | ≤ 50 nM | 50 to 500 nM | ≤ 50 nM
6 | CCc1cc(Nc2ncc(Br)c(Nc3ccc4nccnc4c3NS(=O)(=O)C(C)C)n2)c(OC)cc1N1CCC(N2CCN(C)CC2)CC1 [Compound I-415] | ≤ 50 nM | ≤ 50 nM | ≤ 50 nM | ≤ 50 nM | ≤ 50 nM | ≤ 50 nM
7 | COc1cc(N2CCC(N3CCN(C)CC3)CC2)ccc1Nc1nc(Nc2ccc3nccnc3c2N(C)S(C)(=O)=O)c2sccc2n1 [II-1-1] | 500 to 2500 nM | 50 to 500 nM | 500 to 2500 nM | 500 to 2500 nM | 500 to 2500 nM | 500 to 2500 nM
8 | COc1cc(N2CCC(N3CCN(C)CC3)CC2)c(C)cc1Nc1nc(Nc2ccc3nccnc3c2N(C)S(C)(=O)=O)c2sccc2n1 [II-1-2] | 50 to 500 nM | ≤ 50 nM | 50 to 500 nM | 50 to 500 nM | 50 to 500 nM | 50 to 500 nM
9 | CCc1cc(Nc2nc(Nc3ccc4nccnc4c3N(C)S(C)(=O)=O)c3sccc3n2)c(OC)cc1N1CCC(N2CCN(C)CC2)CC1 [II-1-3] | 50 to 500 nM | ≤ 50 nM | 50 to 500 nM | 50 to 500 nM | 50 to 500 nM | ≤ 50 nM
10 | COc1nc(N2CCC(N3CCN(C)CC3)CC2)ccc1Nc1nc(Nc2ccc3nccnc3c2N(C)S(C)(=O)=O)c2sccc2n1 [II-1-4] | 500 to 2500 nM | 500 to 2500 nM | 500 to 2500 nM | 500 to 2500 nM | 500 to 2500 nM | 500 to 2500 nM
11 | CCc1cc(Nc2nc(Nc3ccc4nccnc4c3N(C)S(C)(=O)=O)c3sccc3n2)c(OC)nc1N1CCC(N2CCN(C)CC2)CC1 [II-1-6] | 500 to 2500 nM | 50 to 500 nM | 500 to 2500 nM | 50 to 500 nM | 500 to 2500 nM | 50 to 500 nM
12 | CCc1cc(Nc2nc(Nc3ccc4nccnc4c3N(C)S(C)(=O)=O)c3sccc3n2)c(OC(F)(F)F)cc1N1CCC(N2CCN(C)CC2)CC1 [II-1-8] | 500 to 2500 nM | 50 to 500 nM | 50 to 500 nM | 50 to 500 nM | 500 to 2500 nM | 50 to 500 nM
13 | C=Cc1cc(Nc2nc(Nc3ccc4nccnc4c3N(C)S(C)(=O)=O)c3sccc3n2)c(OC(F)(F)F)cc1N1CCC(N2CCN(C)CC2)CC1 [II-1-9] | 500 to 2500 nM | ≤ 50 nM | 50 to 500 nM | 50 to 500 nM | 500 to 2500 nM | 50 to 500 nM
14 | COc1cc(N2CCC(N3CCN(C)CC3)CC2)c(Cc2ccccc2)cc1Nc1nc(Nc2ccc3nccnc3c2N(C)S(C)(=O)=O)c2sccc2n1 [II-1-11] | 500 to 2500 nM | 500 to 2500 nM | 50 to 500 nM | 500 to 2500 nM | 500 to 2500 nM | 500 to 2500 nM
15 | COc1cc(N2CCN(C)CC2)c(C)cc1Nc1nc(Nc2ccc3nccnc3c2N(C)S(C)(=O)=O)c2sccc2n1 [II-1-12] | 500 to 2500 nM | 50 to 500 nM | 500 to 2500 nM | 50 to 500 nM | 500 to 2500 nM | 50 to 500 nM
16 | COc1cc(N2CCC(N(C)C)CC2)c(C)cc1Nc1nc(Nc2ccc3nccnc3c2N(C)S(C)(=O)=O)c2sccc2n1 [II-1-13] | 500 to 2500 nM | ≤ 50 nM | 50 to 500 nM | 50 to 500 nM | 500 to 2500 nM | 50 to 500 nM
17 | COc1cc(N2CCC(N(C)C)C2)c(C)cc1Nc1nc(Nc2ccc3nccnc3c2N(C)S(C)(=O)=O)c2sccc2n1 (stereo not drawn) [II-1-14] | 500 to 2500 nM | 50 to 500 nM | 500 to 2500 nM | 50 to 500 nM | 500 to 2500 nM | 500 to 2500 nM
18 | CCc1cc(Nc2nc(Nc3ccc4nccnc4c3N(C)S(C)(=O)=O)c3sccc3n2)c(OC)cc1N1CCN(C)CC1 [II-1-15] | 500 to 2500 nM | 50 to 500 nM | 500 to 2500 nM | 500 to 2500 nM | 500 to 2500 nM | 50 to 500 nM
19 | CCc1cc(Nc2nc(Nc3ccc4nccnc4c3N(C)S(C)(=O)=O)c3sccc3n2)c(OC)cc1N1CCC(N(C)C)CC1 [II-1-16] | 50 to 500 nM | ≤ 50 nM | 50 to 500 nM | 50 to 500 nM | 500 to 2500 nM | 50 to 500 nM
20 | CCc1cc(Nc2nc(Nc3ccc4nccnc4c3N(C)S(C)(=O)=O)c3sccc3n2)c(OC)cc1N1CCC(N(C)C)C1 (stereo not drawn) [II-1-17] | 50 to 500 nM | 50 to 500 nM | 50 to 500 nM | 50 to 500 nM | 50 to 500 nM | 50 to 500 nM
21 | COc1cc(N2CCC(N3CCN(C)CC3)CC2)c(C)cc1Nc1nc(Nc2ccc3nccnc3c2N(C)S(C)(=O)=O)c2[nH]ccc2n1 [II-1-19] | 500 to 2500 nM | 500 to 2500 nM | 500 to 2500 nM | 50 to 500 nM | 500 to 2500 nM | 500 to 2500 nM
22 | CCc1cc(Nc2nc(Nc3ccc4nccnc4c3N(C)S(C)(=O)=O)c3[nH]ccc3n2)c(OC)cc1N1CCC(N2CCN(C)CC2)CC1 [II-1-20] | 50 to 500 nM | 50 to 500 nM | 500 to 2500 nM | 50 to 500 nM | 500 to 2500 nM | 500 to 2500 nM
23 | CCc1cc(Nc2nc(Nc3ccc4nccnc4c3N(C)S(C)(=O)=O)c3[nH]ccc3n2)c(OC)nc1N1CCC(N2CCN(C)CC2)CC1 [II-1-21] | 50 to 500 nM | 50 to 500 nM | 50 to 500 nM | 500 to 2500 nM | 50 to 500 nM | 50 to 500 nM
24 | CCc1cc(Nc2nc(Nc3ccc4nccnc4c3N(C)S(C)(=O)=O)c3[nH]ccc3n2)c(OC(F)(F)F)cc1N1CCC(N2CCN(C)CC2)CC1 [II-1-22] | 500 to 2500 nM | 50 to 500 nM | 50 to 500 nM | 50 to 500 nM | 50 to 500 nM | 50 to 500 nM
25 | C=Cc1cc(Nc2nc(Nc3ccc4nccnc4c3N(C)S(C)(=O)=O)c3[nH]ccc3n2)c(OC(F)(F)F)cc1N1CCC(N2CCN(C)CC2)CC1 [II-1-23] | 50 to 500 nM | ≤ 50 nM | 50 to 500 nM | 50 to 500 nM | 50 to 500 nM | 50 to 500 nM
26 | COc1cc(N2CCC(N3CCN(C)CC3)CC2)ccc1Nc1nc(Nc2ccc3nccnc3c2N(C)S(C)(=O)=O)c2occc2n1 [II-1-24] | 500 to 2500 nM | 500 to 2500 nM | 500 to 2500 nM | 500 to 2500 nM | 500 to 2500 nM | 500 to 2500 nM
27 | COc1cc(N2CCC(N3CCN(C)CC3)CC2)c(C)cc1Nc1nc(Nc2ccc3nccnc3c2N(C)S(C)(=O)=O)c2occc2n1 [II-1-25] | 50 to 500 nM | ≤ 50 nM | 50 to 500 nM | 50 to 500 nM | 50 to 500 nM | 50 to 500 nM
28 | CCc1cc(Nc2nc(Nc3ccc4nccnc4c3N(C)S(C)(=O)=O)c3occc3n2)c(OC)cc1N1CCC(N2CCN(C)CC2)CC1 [II-1-26] | 50 to 500 nM | ≤ 50 nM | ≤ 50 nM | ≤ 50 nM | 50 to 500 nM | ≤ 50 nM
29 | COc1nc(N2CCC(N3CCN(C)CC3)CC2)ccc1Nc1nc(Nc2ccc3nccnc3c2N(C)S(C)(=O)=O)c2[nH]ccc2n1 [II-1-27] | 500 to 2500 nM | 500 to 2500 nM | 500 to 2500 nM | 500 to 2500 nM | 500 to 2500 nM | 500 to 2500 nM
